Columns and labels:
Purified sGC = target: T1, Purified sGC (Homo sapiens, UniProt Q02153); assay: Measurement of sGC activation in vitro (cGMP production by purified sGC); format: biochemical; settings: 20 min; test compound diluted to 30 μM, 10 μL/well plus equal volumes of sGC and GTP; 20 min at room temperature; cGMP without compound (1% DMSO) = 100%; read-out: cGMP amount (%) in experiment system
T1 sequence (Q02153 1-619): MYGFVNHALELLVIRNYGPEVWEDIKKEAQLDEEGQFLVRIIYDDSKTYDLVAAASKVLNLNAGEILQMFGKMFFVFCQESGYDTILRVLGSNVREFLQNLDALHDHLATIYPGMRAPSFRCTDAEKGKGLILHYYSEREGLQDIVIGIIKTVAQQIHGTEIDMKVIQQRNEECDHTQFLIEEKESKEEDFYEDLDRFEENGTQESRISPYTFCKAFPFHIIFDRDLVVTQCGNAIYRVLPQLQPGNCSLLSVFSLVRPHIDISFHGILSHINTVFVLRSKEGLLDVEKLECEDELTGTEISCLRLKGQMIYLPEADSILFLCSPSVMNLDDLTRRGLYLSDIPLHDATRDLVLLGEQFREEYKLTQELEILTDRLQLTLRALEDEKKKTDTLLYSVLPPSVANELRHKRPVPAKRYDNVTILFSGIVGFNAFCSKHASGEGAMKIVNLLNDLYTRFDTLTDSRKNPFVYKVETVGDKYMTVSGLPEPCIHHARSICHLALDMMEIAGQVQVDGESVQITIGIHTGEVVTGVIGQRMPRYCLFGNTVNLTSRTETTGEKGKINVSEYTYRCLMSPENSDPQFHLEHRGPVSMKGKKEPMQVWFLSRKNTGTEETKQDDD
T1 sequence (Q02108 1-690 partner): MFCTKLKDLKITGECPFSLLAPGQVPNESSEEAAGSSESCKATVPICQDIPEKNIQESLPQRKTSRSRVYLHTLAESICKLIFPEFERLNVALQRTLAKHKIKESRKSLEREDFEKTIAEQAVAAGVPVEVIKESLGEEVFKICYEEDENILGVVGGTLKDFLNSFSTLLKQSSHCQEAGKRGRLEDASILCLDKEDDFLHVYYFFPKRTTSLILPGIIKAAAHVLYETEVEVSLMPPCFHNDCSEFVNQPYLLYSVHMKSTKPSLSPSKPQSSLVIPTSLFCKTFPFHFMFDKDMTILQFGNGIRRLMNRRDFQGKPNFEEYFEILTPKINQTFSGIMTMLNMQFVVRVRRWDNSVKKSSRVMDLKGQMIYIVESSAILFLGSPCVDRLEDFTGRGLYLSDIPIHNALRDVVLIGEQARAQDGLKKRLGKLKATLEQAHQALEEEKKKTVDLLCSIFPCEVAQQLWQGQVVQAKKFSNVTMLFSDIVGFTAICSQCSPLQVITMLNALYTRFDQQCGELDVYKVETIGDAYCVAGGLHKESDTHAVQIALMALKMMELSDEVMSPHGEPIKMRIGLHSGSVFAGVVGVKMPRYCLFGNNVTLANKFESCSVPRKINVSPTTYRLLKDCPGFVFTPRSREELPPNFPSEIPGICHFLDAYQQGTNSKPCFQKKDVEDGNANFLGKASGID
Procedure: To evaluate sGC activation of each compound, the following in vitro tests were performed.
A test compound was diluted with a reaction buffer (50 mM HEPES, 5 mM MgCl2, 2 mM DTT, 0.5 mM IBMX (isobutylmethylxanthine), 0.01% BSA) to 30 μM (3% DMSO), and dispensed to a 384 well plate (manufactured by REMP) at 10 μL/well. Purified sGC was diluted with the reaction buffer to 240 ng/mL and added to the plate at 10 μL/well. Then, 120 μM GTP prepared with the reaction buffer was added to the reaction plate at 10 μL/well to initiate an enzyme reaction. After stirring at room temperature for 20 min to allow reaction, 125 mM Na2CO3 was added at 15 μL/well to quench the reaction. Thereafter, 125 mM Zn Acetate (zinc acetate) was added at 15 μL/well to allow precipitation of unreacted GTP. Then, the amount of the resulting cGMP contained in the supernatant was quantified using a CatchPoint cGMP assay kit (molecular devices). The method followed the protocol attached to the assay kit. For detection, Super Signal ELISA Femto (Thermo) was used, and the amount of luminescence was measured with ARVO (Perkinelmer). The sGC activity with addition of the compound was calculated using the amount of cGMP produced without addition of the compound (in the presence of 1% DMSO) as 100%.

male SHR = assay: Measurement of hypotensive action in vivo in SHR; design: species or system rat; settings: single oral administration, 10 mg/kg, 5 hr after administration
Procedure: Animal used was male SHR (32- to 40-week-old, SHR/Izm, Japan SLC, Inc.). Two days before drug administration, a cannula (SP10+SP45, Natsume Seisakusho Co., Ltd.) filled with heparin physiological saline (200 U/mL, Ajinomoto Pharma Co., Ltd.) was inserted from the femoral artery under anesthesia with pentobarbital Na (50 mg/kg, i.p., Kyoritsu Seiyaku Corporation) and dwelled. The other end of the cannula was subcutaneously passed and exposed on the back of the neck where it was fixed. After a recovery period, the artery dwelling cannula was connected to a pressure transducer (DTX Plus DT-XXAD, Japan Becton Dickinson) and output on a pen recorder (linear recorder WR3320-4µL, Graphtec Corporation) via a polygraph (AP-641G, Nihon Kohden Co.), and the blood pressure waveform was recorded. The heart rate was calculated from the blood pressure waveform. After stable blood pressure was obtained, a solvent or a drug was orally administered once, and average blood pressure and average heart rate were measured over time. The blood pressure was measured under fasting, and the rats were reared under free ingestion of feed and water except the blood pressure measurement day. The drug was suspended in 0.5% methylcellulose aqueous solution. The administration dose was 2 mL/kg.

activity at 10 µM (Purified sGC): > 1000%
Compound: Cc1sc(-c2cc(Cl)cc(C(F)(F)F)c2)nc1Cn1cc(C(=O)O)cn1 [Example 83, 1-({2-[3-chloro-5-(trifluoromethyl)phenyl]-5-methyl-1,3-thiazol-4-yl}methyl)-1H-pyrazole-4-carboxylic acid]
hypotension after 5 hr from the administration (male SHR): 14.5 mmHg

Reference: patent publication US8461348B2, “Heterocyclic derivative and use thereof” (Takeda Pharmaceutical Company Limited, priority 2008, dated 2013)
